Measured values from publication PMC11003488 (Journal of Enzyme Inhibition and Medicinal Chemistry, 2023).

Tests used:
[1] = test system: Breast cancer cell lines; test: NCI-60 SRB growth inhibition, subpanel; type: cell-based, human; settings: Homo sapiens, read-out: GI50 MG-MID
[2] = test system: ACHN; test: NCI-60 SRB growth inhibition, one-dose and five-dose; type: cell-based; settings: Homo sapiens; for inhibition at 10 µM: read-out: percent growth inhibition
[3] = test system: Melanoma cell lines; test: NCI-60 SRB growth inhibition, subpanel; type: cell-based, human; settings: Homo sapiens, read-out: GI50 MG-MID
[4] = Cytotoxicity towards normal fibroblasts, safety index; type: cell-based, human; settings: human, WI-38 normal fibroblast cells
[5] = test system: WI-38 normal human fibroblast cells; test: as above; type: cell-based; settings: WI-38 versus cancer cell lines
[6] = test system: Colon cancer cell lines; test: NCI-60 SRB growth inhibition, subpanel; type: cell-based, human; settings: Homo sapiens, read-out: GI50 MG-MID
[7] = test system: SK-OV-3; test: NCI-60 SRB growth inhibition, one-dose and five-dose; type: cell-based; settings: Homo sapiens; for GI50: SK-OV-3; for inhibition at 10 µM: SK-OV-3, read-out: percent growth inhibition
[8] = biological target: Human VEGFR-2 (Homo sapiens, UniProt P35968); test: VEGFR-2 inhibition assay; type: biochemical
Chain of Human VEGFR-2 (P35968 20-1356): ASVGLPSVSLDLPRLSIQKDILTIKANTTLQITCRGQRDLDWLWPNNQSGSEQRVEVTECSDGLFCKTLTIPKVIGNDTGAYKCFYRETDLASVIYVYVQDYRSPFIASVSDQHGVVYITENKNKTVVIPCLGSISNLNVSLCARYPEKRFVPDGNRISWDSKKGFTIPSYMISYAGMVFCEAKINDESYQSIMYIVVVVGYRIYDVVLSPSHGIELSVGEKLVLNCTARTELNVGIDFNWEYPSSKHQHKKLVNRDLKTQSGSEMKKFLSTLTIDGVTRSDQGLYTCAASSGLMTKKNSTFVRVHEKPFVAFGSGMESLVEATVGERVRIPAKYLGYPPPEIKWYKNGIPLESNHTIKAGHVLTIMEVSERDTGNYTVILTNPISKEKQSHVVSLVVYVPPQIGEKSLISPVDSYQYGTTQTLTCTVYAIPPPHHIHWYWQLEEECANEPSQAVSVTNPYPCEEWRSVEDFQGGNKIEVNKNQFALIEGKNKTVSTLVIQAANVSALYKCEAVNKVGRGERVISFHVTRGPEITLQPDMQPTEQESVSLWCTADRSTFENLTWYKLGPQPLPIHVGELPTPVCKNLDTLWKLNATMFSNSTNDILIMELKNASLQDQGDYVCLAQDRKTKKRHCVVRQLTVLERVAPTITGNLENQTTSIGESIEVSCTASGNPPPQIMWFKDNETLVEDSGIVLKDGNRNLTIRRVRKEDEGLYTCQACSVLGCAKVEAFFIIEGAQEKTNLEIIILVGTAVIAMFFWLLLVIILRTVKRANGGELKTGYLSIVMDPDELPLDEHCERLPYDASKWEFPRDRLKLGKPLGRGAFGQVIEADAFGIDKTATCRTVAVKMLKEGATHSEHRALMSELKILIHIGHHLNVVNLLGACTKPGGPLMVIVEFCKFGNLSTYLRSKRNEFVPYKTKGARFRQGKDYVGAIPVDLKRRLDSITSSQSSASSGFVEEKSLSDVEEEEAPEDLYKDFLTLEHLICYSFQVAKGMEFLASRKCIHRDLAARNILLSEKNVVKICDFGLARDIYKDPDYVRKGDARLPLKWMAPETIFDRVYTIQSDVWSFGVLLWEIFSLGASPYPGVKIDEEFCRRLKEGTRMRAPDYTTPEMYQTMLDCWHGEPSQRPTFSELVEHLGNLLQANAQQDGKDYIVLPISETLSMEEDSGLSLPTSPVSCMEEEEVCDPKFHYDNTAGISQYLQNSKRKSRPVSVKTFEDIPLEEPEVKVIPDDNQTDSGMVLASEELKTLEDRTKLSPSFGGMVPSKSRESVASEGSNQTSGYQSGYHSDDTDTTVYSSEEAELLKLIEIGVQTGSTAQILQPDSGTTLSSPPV

[9] = test system: HOP-62; test: NCI-60 SRB growth inhibition, one-dose and five-dose; type: cell-based; settings: Homo sapiens; for GI50: HOP-62; for inhibition at 10 µM: HOP-62, read-out: percent growth inhibition
[10] = test system: KM12; test: as above; type: cell-based; settings: Homo sapiens; for GI50: KM12; for inhibition at 10 µM: KM12, read-out: percent growth inhibition
[11] = test system: MDA-MB-435; test: as above; type: cell-based; settings: Homo sapiens; for GI50: MDA-MB-435; for inhibition at 10 µM: MDA-MB-435, read-out: percent growth inhibition
[12] = test system: MDA-MB-468; test: as above; type: cell-based; settings: Homo sapiens; for GI50: MDA-MB-468; for inhibition at 10 µM: MDA-MB-468, read-out: percent growth inhibition
[13] = test system: MALME-3M; test: as above; type: cell-based; settings: Homo sapiens; for inhibition at 10 µM: read-out: percent growth inhibition
[14] = test system: UO-31; test: as above; type: cell-based; settings: Homo sapiens; for GI50: UO-31
[15] = test system: MDA-MB-231/ATCC; test: as above; type: cell-based; settings: Homo sapiens; for GI50: MDA-MB-231
[16] = test system: LOX IMVI; test: as above; type: cell-based; settings: Homo sapiens; for inhibition at 10 µM: read-out: percent growth inhibition
[17] = test system: NSCLC cell lines; test: NCI-60 SRB growth inhibition, subpanel; type: cell-based, human; settings: Homo sapiens, read-out: GI50 MG-MID
[18] = test system: CCRF-CEM; test: NCI-60 SRB growth inhibition, one-dose and five-dose; type: cell-based; settings: Homo sapiens; for inhibition at 10 µM: read-out: percent growth inhibition
[19] = test system: SF-295; test: as above; type: cell-based; settings: Homo sapiens; for GI50: SF-295; for inhibition at 10 µM: SF-295, read-out: percent growth inhibition
[20] = test system: OVCAR-4; test: as above; type: cell-based; settings: Homo sapiens; for GI50: OVCAR-4; for inhibition at 10 µM: OVCAR-4, read-out: percent growth inhibition
[21] = test system: DU-145; test: as above; type: cell-based; settings: Homo sapiens; for GI50: DU-145; for inhibition at 10 µM: DU-145, read-out: percent growth inhibition
[22] = test system: Ovarian cancer cell lines; test: NCI-60 SRB growth inhibition, subpanel; type: cell-based, human; settings: Homo sapiens, read-out: GI50 MG-MID
[23] = test system: Prostate cancer cell lines; test: NCI-60 SRB growth inhibition, subpanel; type: cell-based, human; settings: Homo sapiens, read-out: GI50 MG-MID
[24] = test system: COLO 205; test: NCI-60 SRB growth inhibition, one-dose and five-dose; type: cell-based; settings: Homo sapiens; for GI50: COLO 205; for inhibition at 10 µM: COLO 205, read-out: percent growth inhibition
[25] = test system: Renal cancer cell lines; test: NCI-60 SRB growth inhibition, subpanel; type: cell-based, human; settings: Homo sapiens, read-out: GI50 MG-MID
[26] = test system: UACC-257; test: NCI-60 SRB growth inhibition, one-dose and five-dose; type: cell-based; settings: Homo sapiens; for GI50: UACC-257; for inhibition at 10 µM: UACC-257, read-out: percent growth inhibition
[27] = test system: Leukaemia cell lines; test: NCI-60 SRB growth inhibition, subpanel; type: cell-based, human; settings: Homo sapiens, read-out: GI50 MG-MID
[28] = test system: CNS cancer cell lines; test: NCI-60 SRB growth inhibition, subpanel; type: cell-based, human; settings: Homo sapiens, read-out: GI50 MG-MID
[29] = test system: NCI-H226; test: NCI-60 SRB growth inhibition, one-dose and five-dose; type: cell-based; settings: Homo sapiens; for GI50: NCI-H226; for inhibition at 10 µM: NCI-H226, read-out: percent growth inhibition
[30] = test system: HT29; test: as above; type: cell-based; settings: Homo sapiens; for GI50: HT-29; for inhibition at 10 µM: HT-29, read-out: percent growth inhibition
[31] = test system: SK-MEL-5; test: as above; type: cell-based; settings: Homo sapiens; for GI50: SK-MEL-5; for inhibition at 10 µM: SK-MEL-5, read-out: percent growth inhibition

CC(=O)Nc1ccc(/C=C/C(=O)c2cccc(NCc3ccc(C)cc3)c2)cc1 [Compound 5f, (E)-N-(4–(3-(3-((4-methylbenzyl)amino)phenyl)-3-oxoprop-1-en-1-yl)phenyl)acetamide]
GI50 [1]: 7.03 µM
GI50 [2]: 13.2 µM
inhibition at 10 µM [2]: 65%
GI50 [3]: 10.5 µM
GI50 at 48 h [4]: > 100 µM
Safety index [5]: >1
GI50 [6]: 7.86 µM
GI50 [7]: 25.8 µM
inhibition at 10 µM [7]: 31.6%
IC50 [8]: 890 ± 9 nM
GI50 [9]: 13.9 µM
inhibition at 10 µM [9]: 13.9%
GI50 [10]: 7.04 µM
inhibition at 10 µM [10]: 136%
GI50 [11]: 6.21 µM
inhibition at 10 µM [11]: 35.7%
GI50 [12]: 4.23 µM
inhibition at 10 µM [12]: 85.6%
GI50 [13]: 12.3 µM
inhibition at 10 µM [13]: 31.1%
GI50 [14]: 6.78 µM
inhibition at 10 µM ([14]; UO-31, read-out: percent growth inhibition): 50.2%
GI50 [15]: 3.7 µM
inhibition at 10 µM ([15]; MDA-MB-231, read-out: percent growth inhibition): 89.4%
GI50 [16]: 2970 nM
inhibition at 10 µM [16]: 157%
GI50 [17]: 13.4 µM
GI50 [18]: 2.84 µM
inhibition at 10 µM [18]: 87.2%
GI50 [19]: 15.7 µM
inhibition at 10 µM [19]: 27.7%
GI50 [20]: 6.18 µM
inhibition at 10 µM [20]: 56.1%
GI50 [21]: 7.44 µM
inhibition at 10 µM [21]: 62.1%
GI50 [22]: 10.5 µM
GI50 [23]: 10.1 µM
GI50 [24]: 16 µM
inhibition at 10 µM [24]: 53.7%
GI50 [25]: 11.4 µM
GI50 [26]: 14.2 µM
inhibition at 10 µM [26]: 15.7%
GI50 [27]: 2.73 µM
GI50 [28]: 9.73 µM
GI50 [29]: 13.7 µM
inhibition at 10 µM [29]: 21.8%
GI50 [30]: 10.7 µM
inhibition at 10 µM [30]: 128%
GI50 [31]: 7.24 µM
inhibition at 10 µM [31]: 49.6%

CC(=O)Nc1ccc(/C=C/C(=O)c2cccc(NCc3ccc(NC(C)=O)cc3)c2)cc1 [Compound 5g, (E)-N-(4–(3-(3-((4-acetamidobenzyl)amino)phenyl)-3-oxoprop-1-en-1-yl)phenyl) acetamide]
GI50 [1]: 7.7 µM
GI50 [2]: 5.1 µM
inhibition at 10 µM [2]: 105%
GI50 [3]: 9.64 µM
GI50 at 48 h [4]: > 100 µM
Safety index [5]: >1
GI50 [6]: 8.13 µM
GI50 [7]: 16.3 µM
inhibition at 10 µM [7]: 0.18%
IC50 [8]: 470 ± 13 nM
GI50 [9]: 14.5 µM
inhibition at 10 µM [9]: 35.3%
GI50 [10]: 13.4 µM
inhibition at 10 µM [10]: 163%
GI50 [11]: 10.3 µM
inhibition at 10 µM [11]: 39%
GI50 [12]: 10 µM
inhibition at 10 µM [12]: 68.2%
GI50 [13]: 7.11 µM
inhibition at 10 µM [13]: 57.5%
GI50 [14]: 10.8 µM
GI50 [15]: 4.56 µM
GI50 [16]: 1900 nM
inhibition at 10 µM [16]: 191%
GI50 [17]: 12.2 µM
GI50 [18]: 4.52 µM
inhibition at 10 µM [18]: 116%
GI50 [19]: 14 µM
inhibition at 10 µM [19]: 51.8%
GI50 [20]: 14 µM
inhibition at 10 µM [20]: 38.7%
GI50 [21]: 11.8 µM
inhibition at 10 µM [21]: 61.7%
GI50 [22]: 11.8 µM
GI50 [23]: 11.7 µM
GI50 [24]: 16 µM
inhibition at 10 µM [24]: 30.7%
GI50 [25]: 10.7 µM
GI50 [26]: 12.5 µM
inhibition at 10 µM [26]: 51.1%
GI50 [27]: 3.87 µM
GI50 [28]: 9.95 µM
GI50 [29]: 12.9 µM
inhibition at 10 µM [29]: 126%
GI50 [30]: 5.75 µM
inhibition at 10 µM [30]: 164%
GI50 [31]: 12 µM
inhibition at 10 µM [31]: 99.6%
